Test results reported in patent US12571794B2, “Epigen AU/11: a natural matrix for restoring homeostasis in cancer cell-infiltrated tissue” (priority 2024, dated 2026).
Where a name gives a salt, the structure may show the parent alone. Read-outs that look alike come from different tables or passages of the source.

Columns and labels:
[1] = test system: explanted biopsies from FaDu graft; type: cell-based, human cells grown in immunocompromised mice; settings: 72 hours ex vivo; EpigenAU/11 50 mg/ml (pH 5.6), cisplatin 150 μg/ml, HCl to pH 5.6
Experimental: Analysis of cell viability in explanted biopsies from the FaDu (9A) and A431 (9B) cell lines was performed after 72 hours of ex vivo treatment. […] Cell viability was analysed using a flow cytometer with the Pacific Blue™ Annexin V/SYTOX™ AADvanced™ Apoptosis Kit, following the manufacturer's instructions. Viability is expressed as a percentage, with untreated controls set at 100%. One-way ANOVA analysis followed by Dunnett's test confirmed significant differences among the groups. Data are represented as mean±SD; *p<0.03;***p<0.0002.
(§3) Analysis of cell viability in explanted biopsies from the FaDu cell lines was performed after 72 hours of ex vivo treatment. […] Cell viability was analysed using a flow cytometer with the Pacific Blue™ Annexin V/SYTOX™ AADvanced™ Apoptosis Kit, following the manufacturer's instructions. Viability is expressed as a percentage, with untreated controls set at 100%. […]
as §3
Following the 72-hour treatment period, cell viability was analysed using flow cytometry.

FaDu xenografts [2] = settings: for MITOSIS (amount of mitosis in 2.37 mm^2; 10x): H&E staining of excised tumours
Experimental: Tumour growth curve of FaDu xenografts in athymic mice over 27 days of treatment. […] Tumour volume was measured every other day. Data are represented as mean±SEM; *p<0.05; **p<0.02. One-way ANOVA followed by Fisher's LSD test was used for statistical analysis.
In this investigation, an in vivo trial utilizing FaDu cells was performed to explore this interaction.
All treatments commenced when tumours reached a volume of 0.1 cm^3.
The response in mice was evaluated using criteria akin to RECIST 1.1 guidelines.
For this purpose, immunocompromised mice bearing xenografted FaDu head and neck squamous carcinoma cells were included in the study once tumours reached a volume of 100 mm^3.

[3] = test system: non-cancerous spheroids (MSC, HuDe); assay: 3D spheroids toxicity, Cell Titer-Glo 3D (ATP); type: cell-based, human; settings: 72 hours; EpigenAU/11 0.22 mg/ml, CDDP 15 μg/ml
Description: Additionally, two 3D spheroids from non-cancerous cell lines were included in the study: • MSC (BM-derived Mesenchymal Stromal Cells): Multipotent stromal cells derived from bone marrow. • HuDe (Human Dermal Fibroblasts): Non-cancerous dermal fibroblast cells.

FaDu xenografts [4] = type: in vivo, mice; set-up: key to Loss of Straightening reflex / Loss of Cleaning / Loss of Curiosity / Loss of Reactivity / Loss of Spontaneous activity: untreated animal value = 0, plus treated animal value
Description: (§1) The risk (intended as side effects) was estimated through the observation of behavioural parameters (impacting the behaviour itself, the locomotor system, muscle strength and nervous reflexes) and through the potential weight loss of the animal.
Data obtained by animal testing, considered in the context of the risk, are behavioural parameters and body weight loss at the end of experimentation.
The behavioural parameters monitored are listed below: • 1. Loss of Spontaneous activity • 2. Loss of Cleaning • 3. Loss of Curiosity • 4. Loss of Reactivity • 5. Loss of Straightening reflex • 6. Loss of Physical strength • 7. Impairment of Palpebral opening • 8. Palpebral reflex • 9. Tremors • 10. Pallor • 11. Stereotypies • 12. Passivity
The values of the parameters 1-8 are normalized as: “Not treated animal value” (always equal to 0)+“Treated animal value”.
The values of the parameters 9-12 are normalized as: “Not treated animal value”-“Treated animal value”.
The potential weight loss of the treated animals was also assessed.” Data were processed using the formula: 1−[“Body weight of treated animals (day of observation: 27)/body weight of untreated animals (day of observation: 19)]
Data were calculated as “Reduction in the size of tumour mass” by the formula: 1−[“Tumour mass size collected from treated animals (day of observation: 27)/Tumour mass size collected from untreated animals (day of observation: 19)]

A431 xenografts = type: in vivo, athymic mice; settings: excised at end of 15-day treatment, six mice
Experimental: Tumour growth curve of A431 xenografts in athymic mice over 15 days of treatment. […] Tumour volume was measured every other day. Data are represented as mean±SEM; **p<0.02; ****p<0.001.
In this trial, athymic mice were subcutaneously injected with 1×10^6 A431 cells into their flank to develop xenograft tumours.

[5] = test system: explanted biopsies from A431 graft; assay: Ex vivo explanted biopsies, cell viability by flow cytometry (Annexin V); type: cell-based, human cells grown in immunocompromised mice; settings: 72 hours ex vivo; EpigenAU/11 50 mg/ml (pH 5.6), cisplatin 150 μg/ml, HCl to pH 5.6
Experimental: Analysis of cell viability in explanted biopsies from the FaDu (9A) and A431 (9B) cell lines was performed after 72 hours of ex vivo treatment. […] Cell viability was analysed using a flow cytometer with the Pacific Blue™ Annexin V/SYTOX™ AADvanced™ Apoptosis Kit, following the manufacturer's instructions. Viability is expressed as a percentage, with untreated controls set at 100%. […] Data are represented as mean±SD; *p<0.03;***p<0.0002.
Analysis of cell viability in explanted biopsies from the A431 cell lines was performed after 72 hours of ex vivo treatment. […] Cell viability was analysed using a flow cytometer with the Pacific Blue™ Annexin V/SYTOX™ AADvanced™ Apoptosis Kit, following the manufacturer's instructions. Viability is expressed as a percentage, with untreated controls set at 100%. […] Data are represented as mean±SD; **p<0.02.
To further substantiate these findings, an ex vivo test was conducted using explanted biopsies from the FaDu and A431 cell lines. These biopsies were generated by injecting the cells into immunocompromised mice, thereby creating a more intricate three-dimensional structure that closely mimics the tumour microenvironment. […] Following the 72-hour treatment period, cell viability was analysed using flow cytometry.

[6] = test system: biopsies derived from the FaDu graft; assay: Genome-wide gene expression profiling, ex vivo; type: cell-based, human; settings: 6 hours; EpigenAU/11 50 mg/ml, cisplatin 150 μg/ml, alone and combined
[7] = test system: Head and Neck Cancer patient-derived tumour organoids; assay: EpigenAU/11 combinations with chemotherapeutics on patient-derived tumour organoids (summary table); type: cell-based; settings: chemotherapy combined with EpigenAU/11
[8] = test system: osteosarcoma spheroids (143B, SaOS-2, U-2 OS); assay: 3D spheroids toxicity, Cell Titer-Glo 3D (ATP); type: cell-based; settings: 72 hours; EpigenAU/11 0.22 mg/ml, CDDP 15 μg/ml
Experimental: The Cell Titer-Glo® 3D Viability Assay was used to quantify ATP as a marker of cell viability. Results are expressed as the survival ratio (%) between treated cells and their corresponding untreated controls.
In addition to the findings above, several partners contributed to the development of more complex in vitro models, including 3D spheroids, which better mimic the three-dimensional structure of tumours and their microenvironment.
The viability of both control and treated cells was assessed 72 hours after the start of treatment by quantifying ATP levels using the Cell Titer-Glo® 3D Viability Assay following the manufacturer's instructions.

[9] = test system: bladder tumour organoid Bladder 41; assay: Tumour organoid viability with chemotherapeutics, CellTiter-Glo 3D; type: cell-based, human; settings: Bladder Cancer patient-derived tumour organoids; chemotherapy combined with EpigenAU/11
Experimental: (§2) 39A bladder 38, 39B bladder 41, 39C breast 203, 39D Endometrium 12. […] Breast organoids (Breast 203): Treated sequentially with paclitaxel (P, 50 nM)+carboplatin (C, 100 nM) for 72 hours, followed by epirubicin (E, 1 μM)+cyclophosphamide (Cy 7 μM) for an additional 72 hours. Endometrial organoid (Endometrium 12): Treated with carboplatin (C, 100 nM), paclitaxel (P, 100 nM), or their combination for 72 hours. ATP content, measured by CellTiter-Glo® 3D, is expressed as a percentage of cell viability, with untreated controls set at 100%. Statistical analysis was performed using one-way ANOVA followed by Dunnett's test, with significant differences denoted by p<0.002 (**) and p<0.0001 (****). Data are presented as mean±SD.

[10] = set-up: species or system mice; settings: mouse, in vivo
Experimental: Furthermore, to better understand the potential systemic toxicity of the treatments, an Irwin test was conducted, evaluating a range of physiological and behavioural parameters, including general behaviour, CNS excitement, movement coordination, muscle tone, reflex responses, and autonomic signs.
Parameters assessed include general behaviour, central nervous system (CNS) excitement, movement coordination, muscle tone, reflex responses, and autonomic signs.
as §1

[11] = test system: FaDu, A431 and HuDe cells; assay: Intracellular pH (pHrodo Green AM); type: cell-based, human; settings: EpigenAU/11 0.66 mg/ml or HCl, one hour
Description: Cells were labelled with pHrodo™ Green AM Intracellular pH Indicator according to manufacturers' instructions. pH values were normalized with respect to cell number, measured by Nuclear Mask Red staining.

[12] = test system: endometrial tumour organoid Endometrium 12; settings: 72 hours; EpigenAU/11 0.66 mg/ml, carboplatin 100 nM, paclitaxel 100 nM
Experimental: as §2

## N.N.[Cl][Pt][Cl] [Cisplatin]
[1]
  cell death: around 25%
FaDu xenografts [2]; 27 days, cisplatin 2 mg/kg i.p. every two days
  tumour progression: stabilization of the disease
FaDu xenografts [2]
  MITOSIS (amount of mitosis in 2.37 mm^2; 10x): 14 (±8)
FaDu xenografts [2]; listed as cisplatin
  MITOSIS (amount of mitosis in 2.37 mm^2; 10x): 14
FaDu xenografts [2]; day of observation 27
  Size of tumor masses (Mean): 0.50
FaDu xenografts [2]; explanted after 27 days of treatment, five mice
  MEAN tumour mass: 454 mg
FaDu xenografts [2]; mouse, in vivo
  Body weight (Mean): 29.12
[3]
  viability (ATP levels) of healthy spheroids: indiscriminately killed both cancerous and healthy cells
FaDu xenografts [4]; 1−[body weight treated day 27/untreated day 19]
  Weight loss: 0.22
FaDu xenografts [4]; 1−[tumour mass size treated day 27/untreated day 19]
  Reduction in the size of tumour mass: 0.64
FaDu xenografts [4]; mouse, in vivo
  IN VIVO BENEFIT SCORE: 0.64
FaDu xenografts [4]; normalised risk parameter
  Impairment of Palpebral opening: 2.00
  Loss of Cleaning: 1.50
  Loss of Curiosity: 1.60
  Loss of Palpebral reflex: 1.20
  Loss of Physical strength: 1.30
  Loss of Reactivity: 1.40
  Loss of Spontaneous activity: 1.80
  Loss of Straightening reflex: 1.40
  Pallor: 2.00
  Passivity: 1.10
  Stereotypies: 0.00
  Tremors: 0.80
FaDu xenografts [4]; sum of risk parameters
  IN VIVO RISK SCORE: 16
A431 xenografts
  MEAN tumour mass: 368 mg
[5]
  cell death: around 30%
[6]
  modulation of cancer-related pathways (gene expression): comparable downregulatory effect across many of the same pathways
[7]
  Cooperative Effect with EpigenAU/11: YES
[8]
  viability (ATP levels) of cancerous spheroids: indiscriminately killed both cancerous and healthy cells
[9]
  Cooperative Effect with EpigenAU/11: YES
[10]
  reduction in overall biological functions: 30-40%

## Cl [HCl, hydrochloric acid]
[1]
  cell death: no significant signs of cell death
[5]
  cell death: no significant signs of cell death
[11]
  intracellular pH: no observable effects

## N.N.O=C([O-])C1(C(=O)[O-])CCC1.[Pt+2] [carboplatin]
[12]
  viability (ATP, untreated = 100%): 85.1%
